Experiments:
[1] = system: human neuronal calcium channel α1D and α2 subunits, expressed in Xenopus laevis oöcytes; assay: Two-electrode voltage clamp of barium currents in Xenopus laevis oöcytes injected with α1D and α2 transcripts; assay type: cell-based; settings: Bay K 8644; very small currents (15-30 nA); holding potential -90 mV
Text: Plasmids pVDCC III.RBS(A), containing of pcDNA1 and the α1D cDNA that begins with a ribosome binding site and the eighth ATG codon of the coding sequence (see Example III.A.3.d), plasmid pHBCaCHα1A containing of pcDNA1 and an α2 subunit cDNA (see Example IV), and plasmid pHBCaCHβ1bRBS (A) containing pcDNA1 and the β1 DNA lacking intron sequence and containing a ribosome binding site (see Example III), were linearized by restriction digestion. The α1D cDNA- and α2 subunit-encoding plasmids were digested with XhoI, and the β1 subunit-encoding plasmid was digested with EcoRV. The DNA insert was transcribed with T7 RNA polymerase.

[2] = system: human neuronal calcium channel α2 and β1 subunits, expressed in Xenopus laevis oöcytes; assay: Two-electrode voltage clamp of barium currents in Xenopus laevis oöcytes injected with α2 and β1 transcripts (no α1D; comparison); assay type: cell-based; settings: Bay K 8644; n=11
[3] = system: human neuronal calcium channel α1D (SEQ ID No. 1), α2 (SEQ ID No. 11) and β1 (SEQ ID No. 9) subunits, expressed in HEK 293 cells; assay: Whole-cell patch clamp of barium currents in transiently transfected HEK 293 cells; assay type: cell-based; settings: 1 µM Bay K 8644
Procedure: Pflugers Arch. 391:85-100].
Two days after transient transfection of HEK 293 cells with α1, α2 and β1 subunit-encoding cDNA and the lacZ gene, individual transfectants were assayed for voltage-dependent barium currents. The currents in nine transfectants were recorded.

[4] = system: human neuronal calcium channel α1D (SEQ ID No. 1), α2 (SEQ ID No. 11) and β1 (SEQ ID No. 9) subunits, stably expressed in HEK 293 cells; assay: Whole-cell patch clamp of barium currents in stably transfected HEK 293 cells; settings: Bay K 8644 1 µM

COC(=O)C1=C(C)NC(C)=C([N+](=O)[O-])C1c1ccccc1C(F)(F)F (stereo not drawn) [Bay K 8644]
response of barium currents to the compound [1]: little or no response | sensitivity of inward barium currents to the compound [2]: insensitive | effect on inward barium current ([3]; holding potential -90 mV, 15 mM Ba2+ bath, one transfectant): significantly enhanced in magnitude | largest inward barium current in the presence of the compound ([3]; membrane depolarized to 0 mV from holding potential -90 mV): -160 pA | barium current during application of the compound ([4]; depolarized to -10 mV from holding potential -90 mV, approximately 35pA in its absence): approximately 75 pA | shift of the current-voltage relation ([4]; same cell, series of depolarizing voltages): about -10 mV
